Source: patent publication US4649156A, “6-nitroprostaglandin derivatives” (Teijin Limited, priority 1982, dated 1987)
In brackets after ≈: the same amount, converted by molar mass.

Experiments:
platelet aggregation = assay: In vitro inhibitory activity of platelet aggregation (ADP-induced, platelet-rich plasma); assay type: cell-based, rabbit (Japanese domestic white male rabbits); conditions: Oryctolagus cuniculus, rabbit PRP, 10 μM (final) ADP, pre-incubated at 37° C. for 2 minutes, read-out: IC50 (minimum concentration of the drug which inhibited more than 50% of platelet aggregation)
Protocol: The in vitro platelet aggregation imhibiting activity of the compounds of the invention were examined by using rabbits. Blood was withdrawn from the ear vein of Japanese domestic white male rabbits weighing 2.5 to 3.5 kg. A mixture of a 3.8% trisodium citrate solution and the blood in a ratio of 1:9 was centrifuged at a speed of 1000 rpm for 10 minutes. The upper layer was separated as platelet-rich plasma (PRP). The lower layer was further centrifuged at a speed of 28000 rpm for 10 minutes. The upper layer was separated as platelet-poor plasma (PPP). The number of platelets was adjusted to 6×10^5 /μl to 7×10^5 […] by diluting the PRP with PPP. 25 microliters of the test compounds prepared as shown below was added in an amount of 25 to 250 microliters of PRP after the adjustment, and the mixture was pre-incubated at 37° C. for 2 minutes, and then 10 μM (final) of ADP was added. By using an aggregometer, changes in transmission were recorded.
The drug was dissolved in ethanol to a concentration of 10 mg/ml, and successively diluted with phosphate buffer (pH 7.4) prior to use.
The rate of inhibition of platelet aggregation was determined from the following equation. [formula] To : the transmittance of the system containing the phosphate buffer, T: The transmittance of the system to which the test drug was added. […]

[1] = test system: blood pressure and heart beat rate of rats; assay: Measurement of the hypotensive activity (blood pressure and heart beat rate, i.v., anesthetized rats); assay type: in vivo, rat (male wister rats); conditions: Rattus norvegicus, iv, urethane/α-chloralose anesthesia; for ED10: read-out: H-ED10 (dosage which caused a 10% increase of the heart rate); for ED20: read-out: P-ED20 (dosage which caused a 20% lowering of the mean blood pressure)
Protocol: Measurement of the Hypotensive Activity
The actions of the 6-nitroprostaglandin E1 derivatives of the invention on the blood pressure and heart beat rate of rats were examined by intravenous injection under anesthesia.
Male wister rats weighing about 250 g were used. Urethane (500 mg/kg) and α-chloralose (100 mg/kg) were intraperitoneally administered to the rats. The rats were anesthetized and fixed in place.
Each of the test compounds was dissolved in a small amount of ethanol and diluted with physiological saline to adjust the final ethanol concentration to not more than 5%. The solution was intravenously injected into the rats through a catheter inserted into the femoral vein.
The blood pressure of the rats were measured by a pressure transducer through a catheter inserted into the carotid artery of the rats. The heart beat rate was determined from the blood pressure pulse.
The action of the test compound on the blood pressure was expressed as the dosage (p-EDz20, μg/kg) of the test compound which caused a 20% lowering of the mean blood pressure before administration of the compound. The action of the test compound on the heart rate was expressed as the dosage (H-ED10, μg/kg) of the test compound which caused a 10% increase of the heart rate from the heart beat rate before administration of the test compound.

indomethacin ulcer = assay: Measurement of inhibitory activity on indomethacin ulcer; assay type: in vivo, rat (wistar-strain male rats); conditions: indomethacin 20 mg/kg oral, n=8
Protocol: Seven week-oil wistar-strain male rats (body weight 200 to 220 g) were fasted for 24 hours but water was provided freely, and then used in the following experiment.
Each of the test compounds suspended in phosphate Buffers (pH 7.4) was orally administered to the rats, and 30 minutes later, indomethacin was orally administered in a dose of 20 mg/kg. Six hours later, the animals were sacrificed. The abdomen was cut open, and the stomach was removed. 1% Even's blue was injected in an amount of 0.5 ml/rat into the rats through the tail vein under ether anesthesia 10 minutes before sacrificing.
12 ml of a 1% formalin was injected into the stomach and the stomach was further dipped in 1% formaline for about 10 minutes for the fixation. The stomach was cut open on the side of the greater curvature, and spread on a glass plate. The lengths of ulcers generated in the glandular stomach were measured by using a solid microscope. The sum of the lengths of the ulcers for each nimal was used as the ulcer index. The ulcer inhibiting ratio of the test compound was calculated in accordance with the following equation. [formula]
The control group was given phosphate buffer saline (pH 7.4) indomethacin alone.

Row | Structure (SMILES) | IC50 (platelet aggregation) [mg/L] | ED10 [1] [mg/kg] | ED20 [1] [mg/kg] | Inhibition (ulcer inhibiting ratio) (indomethacin ulcer; 3 μg/kg oral) [%] | Ulcer index (indomethacin ulcer; 3 μg/kg oral) [mm] | Inhibition (ulcer inhibiting ratio) (indomethacin ulcer; 10 μg/kg oral) [%] | Ulcer index (indomethacin ulcer; 10 μg/kg oral) [mm] | Inhibition (ulcer inhibiting ratio) (indomethacin ulcer; 30 μg/kg oral) [%] | Ulcer index (indomethacin ulcer; 30 μg/kg oral, **P < 0.01) [mm]
1 | CCCCC[C@H](O)/C=C/[C@H]1[C@H](O)CC(=O)[C@@H]1CC(CCCCC(=O)OC)[N+](=O)[O-] (stereo partly drawn) [6-nitroprostaglandin E1 methyl ester] | 4.5 (≈ 10.9 µM) | > 0.01 | 0.01 |  |  |  |  |  | 
2 | CCCC[C@H](C)C[C@H](O)/C=C/[C@H]1[C@H](O)CC(=O)[C@@H]1CC(CCCCC(=O)OC)[N+](=O)[O-] (stereo partly drawn) [17(S),20-dimethyl-6-nitroprostaglandin E1 methyl ester] | 0.017 (≈ 0.0385 µM) | > 0.01 | 0.0004 | 12.6 | 12.5 ± 3.2 | 51.0 | 7.0 ± 1.8 | 80.4 | 2.8 ± 1.2
